Measurements published in US6423689B1, “Peptidyl calcium channel blockers” (Warner-Lambert Company, priority 1997, dated 2002).

Biological target: T1, N-type Ca2+ channels in IMR-32 cells (Homo sapiens, UniProt Q00975)
T1 construct: host or cells: IMR-32 cells, differentiated with dibutyryl cAMP and bromodeoxyuridine
Test: Inhibition of N-type calcium flux in IMR-32 cells (Indo-1 fluorescence, nitrendipine present)
Format: cell-based
Settings: for IC50: IMR-32 cells, 5 μM nitrendipine, K+ depolarization
Procedure, shortened: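 Differentiated IMR-32 cells (7–13 days) were loaded with 5 μM Indo-1 AM, preincubated with compound for 10 min at 30° C, and depolarized with KCl/CaCl2 stimulation solution, with 5 μM nitrendipine blocking L-channels. Peak-minus-basal 400/490 nm emission ratio was plotted against drug concentration, and IC50 came from four-parameter logistic fits.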

T1 sequence (Q00975 whole entry): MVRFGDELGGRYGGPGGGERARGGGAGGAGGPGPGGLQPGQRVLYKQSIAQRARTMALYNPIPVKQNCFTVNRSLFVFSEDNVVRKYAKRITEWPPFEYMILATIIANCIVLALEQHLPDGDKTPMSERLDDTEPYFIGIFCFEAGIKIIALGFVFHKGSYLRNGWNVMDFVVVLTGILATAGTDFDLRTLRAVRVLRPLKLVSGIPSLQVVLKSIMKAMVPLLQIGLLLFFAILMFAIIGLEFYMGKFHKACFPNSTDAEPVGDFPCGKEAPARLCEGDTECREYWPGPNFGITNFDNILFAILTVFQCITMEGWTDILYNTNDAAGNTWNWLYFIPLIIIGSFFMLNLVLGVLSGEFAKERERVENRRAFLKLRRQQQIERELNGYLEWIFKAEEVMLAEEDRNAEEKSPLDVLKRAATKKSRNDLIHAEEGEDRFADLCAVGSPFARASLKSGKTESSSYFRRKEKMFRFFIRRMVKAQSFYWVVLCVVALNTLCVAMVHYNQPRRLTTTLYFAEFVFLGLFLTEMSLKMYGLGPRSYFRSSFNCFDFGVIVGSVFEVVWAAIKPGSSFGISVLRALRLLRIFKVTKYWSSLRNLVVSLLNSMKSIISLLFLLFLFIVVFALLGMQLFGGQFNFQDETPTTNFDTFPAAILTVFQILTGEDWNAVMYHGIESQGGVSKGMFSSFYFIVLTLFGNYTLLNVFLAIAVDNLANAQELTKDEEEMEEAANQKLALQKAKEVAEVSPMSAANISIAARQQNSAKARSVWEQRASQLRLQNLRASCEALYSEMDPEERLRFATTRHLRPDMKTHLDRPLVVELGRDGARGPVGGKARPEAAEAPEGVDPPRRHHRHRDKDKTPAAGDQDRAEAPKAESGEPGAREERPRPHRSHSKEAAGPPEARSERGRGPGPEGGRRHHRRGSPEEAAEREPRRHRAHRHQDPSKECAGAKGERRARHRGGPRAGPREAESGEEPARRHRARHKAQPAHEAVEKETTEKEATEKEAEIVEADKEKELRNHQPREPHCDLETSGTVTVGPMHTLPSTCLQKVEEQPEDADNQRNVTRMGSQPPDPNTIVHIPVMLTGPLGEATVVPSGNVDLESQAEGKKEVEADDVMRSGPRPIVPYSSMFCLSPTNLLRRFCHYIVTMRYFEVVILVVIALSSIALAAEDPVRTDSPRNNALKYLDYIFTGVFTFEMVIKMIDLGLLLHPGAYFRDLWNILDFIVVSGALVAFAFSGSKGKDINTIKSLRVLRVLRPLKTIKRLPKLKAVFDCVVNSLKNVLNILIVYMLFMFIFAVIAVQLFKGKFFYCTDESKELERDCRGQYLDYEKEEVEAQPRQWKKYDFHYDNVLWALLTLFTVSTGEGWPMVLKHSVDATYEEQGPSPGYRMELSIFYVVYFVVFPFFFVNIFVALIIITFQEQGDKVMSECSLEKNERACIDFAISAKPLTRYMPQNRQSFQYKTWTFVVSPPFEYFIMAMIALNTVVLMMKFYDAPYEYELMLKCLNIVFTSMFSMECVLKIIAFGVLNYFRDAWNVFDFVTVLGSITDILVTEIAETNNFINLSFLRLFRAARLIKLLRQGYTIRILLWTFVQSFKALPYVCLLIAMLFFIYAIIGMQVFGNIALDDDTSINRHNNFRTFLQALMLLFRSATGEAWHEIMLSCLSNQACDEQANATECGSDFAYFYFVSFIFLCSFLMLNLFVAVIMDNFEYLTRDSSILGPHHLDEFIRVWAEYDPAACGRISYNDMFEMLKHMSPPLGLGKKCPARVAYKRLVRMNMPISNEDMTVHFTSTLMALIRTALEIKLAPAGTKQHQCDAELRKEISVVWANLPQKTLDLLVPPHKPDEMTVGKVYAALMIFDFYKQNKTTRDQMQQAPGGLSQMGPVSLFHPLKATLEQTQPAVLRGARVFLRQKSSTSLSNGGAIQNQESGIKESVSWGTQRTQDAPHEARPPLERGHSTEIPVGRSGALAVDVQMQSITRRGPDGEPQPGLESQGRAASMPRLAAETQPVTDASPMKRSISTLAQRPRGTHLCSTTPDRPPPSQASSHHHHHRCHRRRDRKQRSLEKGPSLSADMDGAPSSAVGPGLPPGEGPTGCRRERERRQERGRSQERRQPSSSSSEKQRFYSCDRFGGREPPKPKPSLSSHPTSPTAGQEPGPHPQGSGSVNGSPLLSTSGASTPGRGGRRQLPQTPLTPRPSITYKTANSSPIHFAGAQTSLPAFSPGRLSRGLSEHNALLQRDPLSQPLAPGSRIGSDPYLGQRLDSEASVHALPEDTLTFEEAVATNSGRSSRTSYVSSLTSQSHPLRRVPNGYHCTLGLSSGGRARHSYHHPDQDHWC
T1 sequence (P54289 25-956 partner limits assumed): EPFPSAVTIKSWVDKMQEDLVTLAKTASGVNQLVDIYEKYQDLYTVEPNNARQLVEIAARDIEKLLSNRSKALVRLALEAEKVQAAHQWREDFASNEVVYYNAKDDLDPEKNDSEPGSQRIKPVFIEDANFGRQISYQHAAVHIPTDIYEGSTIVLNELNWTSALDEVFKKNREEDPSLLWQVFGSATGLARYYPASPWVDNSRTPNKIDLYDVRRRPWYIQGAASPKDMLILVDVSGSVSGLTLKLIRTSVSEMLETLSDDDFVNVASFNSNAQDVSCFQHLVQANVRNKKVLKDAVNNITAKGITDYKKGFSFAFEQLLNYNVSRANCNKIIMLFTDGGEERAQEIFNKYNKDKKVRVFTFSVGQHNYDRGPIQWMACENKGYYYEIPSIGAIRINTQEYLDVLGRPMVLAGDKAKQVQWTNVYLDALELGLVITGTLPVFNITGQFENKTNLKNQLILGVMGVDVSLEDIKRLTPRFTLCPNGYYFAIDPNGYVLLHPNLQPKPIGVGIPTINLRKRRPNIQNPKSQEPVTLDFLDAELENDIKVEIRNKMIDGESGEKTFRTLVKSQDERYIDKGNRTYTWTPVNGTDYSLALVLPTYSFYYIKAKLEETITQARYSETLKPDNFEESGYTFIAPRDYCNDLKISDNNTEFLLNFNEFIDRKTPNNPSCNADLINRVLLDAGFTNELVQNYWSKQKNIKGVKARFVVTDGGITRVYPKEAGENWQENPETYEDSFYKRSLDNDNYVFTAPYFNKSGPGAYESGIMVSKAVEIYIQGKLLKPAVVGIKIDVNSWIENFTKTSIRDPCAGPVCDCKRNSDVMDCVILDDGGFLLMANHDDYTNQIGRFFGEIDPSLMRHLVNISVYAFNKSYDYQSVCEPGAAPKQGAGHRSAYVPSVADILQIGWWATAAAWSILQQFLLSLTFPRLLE
T1 sequence (P54289 957-1103 partner limits assumed): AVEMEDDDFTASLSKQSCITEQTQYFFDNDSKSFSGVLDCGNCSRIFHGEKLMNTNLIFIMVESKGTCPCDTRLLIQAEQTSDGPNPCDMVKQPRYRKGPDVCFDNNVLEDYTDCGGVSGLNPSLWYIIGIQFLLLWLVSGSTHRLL
T1 sequence (P54284 whole entry partner): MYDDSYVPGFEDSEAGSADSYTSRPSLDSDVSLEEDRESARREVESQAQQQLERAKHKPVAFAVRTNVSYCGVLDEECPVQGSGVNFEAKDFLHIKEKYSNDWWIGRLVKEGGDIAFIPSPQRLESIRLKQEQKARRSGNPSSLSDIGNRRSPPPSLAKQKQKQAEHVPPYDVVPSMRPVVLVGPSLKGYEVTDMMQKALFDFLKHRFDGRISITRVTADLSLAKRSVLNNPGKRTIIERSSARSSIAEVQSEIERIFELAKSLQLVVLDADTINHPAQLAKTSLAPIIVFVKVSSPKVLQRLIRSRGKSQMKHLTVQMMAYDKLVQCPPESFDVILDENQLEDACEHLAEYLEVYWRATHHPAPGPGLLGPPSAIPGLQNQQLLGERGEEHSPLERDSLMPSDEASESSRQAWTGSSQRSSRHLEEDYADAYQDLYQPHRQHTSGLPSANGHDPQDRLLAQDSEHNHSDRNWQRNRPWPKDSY

Row | SMILES | Inhibition of Calcium Flux in IMR-32 Cells % Inhibition at 1 μM [%] | Inhibition of Calcium Flux in IMR-32 Cells % Inhibition at 10 μM [%] | IC50 [µM]
1 | CC(C)C[C@H](NC(=O)N1CCCCCC1)C(=O)N[C@@H](Cc1ccc(C#Cc2ccccc2)cc1)C(=O)NC(C)(C)C (relative stereo) [Example 134, [S(R*,R*)]-Azepane-1-carboxylic acid {1-[1-tert-butylcarbamoyl-2-(4-phenylethynyl-phenyl)-ethylcarbamoyl]-3-methyl-butyl}-amide] | 29 | 56 | 
2 | CC(C)C[C@H](NC(=O)N1CCOCC1)C(=O)N[C@@H](Cc1ccc(OCc2ccccc2)cc1)C(=O)N1CCCCC1 (relative stereo) [Example 151, [S(R*,R*)]-Morpholine-4-carboxylic acid {1-[1-(4-benzyloxy-benzyl)-2oxo-2-piperidin-1-ylethylcarbamoyl]-3-methyl-butyl}amide] |  |  | 4.3
3 | CC(C)C[C@H](NC(=O)N1CCCCCC1)C(=O)N[C@@H](Cc1ccc(OCc2ccccc2)cc1)C(=O)Nc1ccc(Br)cc1 (relative stereo) [Example 173, [S-(R*,R*)]-Azepane-1-carboxylic acid {1-[2-(4-benzyloxy-phenyl)-1-(4-bromophenylcarbamoyl)-ethylcarbamoyl]-3-methyl-butyl}-amide] |  |  | 0.28
4 | CC(C)C[C@H](NC(=O)N1CCCCCC1)C(=O)N[C@@H](Cc1ccc(OCc2ccccc2)cc1)C(=O)Nc1ccc(N(C)C)cc1 (relative stereo) [Example 215, [S-(R*,R*)]-Azepane-1-carboxylic acid {1-[2-(4-benzyloxy-phenyl)-1-(4-dimethylamino-phenylcarbamoyl)-ethylcarbamoyl]-3-methyl-butyl}-amide] | 35 | 44 | 
5 | CC(=O)Nc1ccc(NC(=O)[C@H](Cc2ccc(OCc3ccccc3)cc2)NC(=O)[C@H](CC(C)C)NC(=O)N2CCCCCC2)cc1 (relative stereo) [Example 216, [S-(R*,R*)]-Azepane-1-carboxylic acid {1-[1-(4-acetylamino-phenylcarbamoyl)-2-(4-benzyloxy-phenyl)-ethylcarbamoyl]-3-methyl-butyl}-amide] | 16 | 37 | 
6 | CC(C)C[C@H](NC(=O)N1CCCCCC1)C(=O)N[C@@H](Cc1ccc(OCc2ccccc2)cc1)C(=O)NCc1ccco1 (relative stereo) [Example 220, [S-(R*,R*)]-Azepane-1-carboxylic acid (1-{2-(4-benzyloxy-phenyl)-1-[(furan-2-ylmethyl)-carbamoyl]-ethylcarbamoyl}-3-methyl-butyl)-amide] | 40 | 88 | 
7 | CC(C)C[C@H](NC(=O)N1CCCCCC1)C(=O)N[C@@H](Cc1ccc(OCc2ccccc2)cc1)C(=O)NCc1ccc2c(c1)OCO2 (relative stereo) [Example 222, [S-(R*,R*)]-Azepane-1-carboxylic acid {1-[1-[(benzo[1,3]dioxol-5-ylmethyl)-carbamoyl]-2-(4-benzyloxy-phenyl)-ethylcarbamoyl]-3-methyl-butyl}-amide] | 36 | 84 | 
8 | COc1cc(NC(=O)[C@H](Cc2ccc(OCc3ccccc3)cc2)NC(=O)[C@H](CC(C)C)NC(=O)N2CCCCCC2)cc(OC)c1OC (relative stereo) [Example 223, [S-(R*,R*)]-Azepane-1-carboxylic acid {-1-[2-(4-benzyloxy-phenyl)-1-(3,4,5-trimethoxy-phenylcarbamoyl)-ethylcarbamoyl]-3-methyl-butyl}-amide] | 36 | 74 | 
9 | CC(C)C[C@H](NC(=O)N1CCCCCC1)C(=O)N[C@@H](Cc1ccc(OCc2ccccc2)cc1)C(=O)NCCc1c[nH]c2ccccc12 (relative stereo) [Example 224, [S-(R*,R*)]-Azepane-1-carboxylic acid (1-{2-(4-benzyloxy-phenyl)-1-[2-(1H-indol-3-yl)-ethylcarbamoyl]-ethylcarbamoyl}-3-methyl-butyl)-amide] | 50 | 87 | 
10 | CC(C)C[C@H](NC(=O)N1CCCCCC1)C(=O)N[C@@H](Cc1ccc(OCc2ccccc2)cc1)C(=O)NCCc1ccc(O)cc1 (relative stereo) [Example 225, [S-(R*,R*)]-Azepane-1-carboxylic acid (1-{2-(4-benzyloxy-phenyl)-1-[2-(4-hydroxy-phenyl)-ethylcarbamoyl]-ethylcarbamoyl}-3-methyl-butyl)-amide] | 55 | 94 | 
11 | CCC(CO)NC(=O)[C@H](Cc1ccc(OCc2ccccc2)cc1)NC(=O)[C@H](CC(C)C)NC(=O)N1CCCCCC1 (relative stereo) [Example 226, [S-(R*,R*)]-Azepane-1-carboxylic acid {1-[2-(4-benzyloxy-phenyl)-1-(1-hydroxymethyl-propylcarbamoyl)-ethylcarbamoyl]-3-methyl-butyl}-amide] | 37 | 84 | 
12 | CC(C)C[C@H](NC(=O)N1CCCCCC1)C(=O)N[C@@H](Cc1ccc(OCc2ccccc2)cc1)C(=O)N1CCN(CCOCCO)CC1 (relative stereo) [Example 228, [S-(R*,R*)]-Azepane-1-carboxylic acid-[1-(1-(4-benzyloxy-benzyl)-2-{4-[2-(2-hydroxy-ethoxy)-ethyl]-piperazin-1-yl}-2-oxo-ethylcarbamoyl)-3-methyl-butyl]-amide] | 24 | 82 | 
13 | CCC(CO)(CO)NC(=O)[C@H](Cc1ccc(OCc2ccccc2)cc1)NC(=O)[C@H](CC(C)C)NC(=O)N1CCCCCC1 (relative stereo) [Example 229, [S-(R*,R*)]-Azepane-1-carboxylic acid {1-[2-(4-benzyloxy-phenyl)-1-(1,1-bis-hydroxymethyl-propylcarbamoyl)-ethylcarbamoyl]-3-methyl-butyl}-amide] | 30 | 80 | 
14 | CC(C)C[C@H](NC(=O)N1CCCCCC1)C(=O)N[C@@H](Cc1ccc(OCc2ccccc2)cc1)C(=O)N1CCC(O)CC1 (relative stereo) [Example 235, [S-(R*,R*)]-Azepane-1-carboxylic acid {1-[1-(4-benzyloxy-benzyl)-2-(4-hydroxy-piperidin-1-yl)-2-oxo-ethylcarbamoyl]-3-methyl-butyl}-amide] | 20 | 64 | 
15 | CC(C)C[C@H](NC(=O)N1CCCCCC1)C(=O)N[C@@H](Cc1ccc(OCc2ccccc2)cc1)C(=O)NCCC#N (relative stereo) [Example 236, [S-(R*,R*)]-Azepane-1-carboxylic acid {1-[2-(4-benzyloxy-phenyl)-1-(2-cyano-ethylcarbamoyl)-ethylcarbamoyl]-3-methyl-butyl}-amide] | 50 | 93 | 
16 | CC(C)C[C@H](NC(=O)N1CCCCCC1)C(=O)N[C@@H](Cc1ccc(OCc2ccccc2)cc1)C(=O)N1CCN(c2ccc(F)cc2)CC1 (relative stereo) [Example 240, [S-(R*,R*)]-Azepane-1-carboxylic acid (1-{1-(4-benzyloxy-benzyl)-2-[4-(4-fluoro-phenyl)-piperazin-1-yl]-2-oxo-ethylcarbamoyl}-3-methyl-butyl)-amide] | 63 | 86 | 0.75
17 | CC(C)C[C@H](NC(=O)N1CCCCCC1)C(=O)N[C@@H](Cc1ccc(OCc2ccccc2)cc1)C(=O)NCc1cccc(I)c1 (relative stereo) [Example 241, [S-(R*,R*)]-Azepane-1-carboxylic acid {1-[2-(4-benzyloxy-phenyl)-1-(3-iodo-benzylcarbamoyl)-ethylcarbamoyl]-3-methyl-butyl}-amide] | 53 | 83 | 
18 | CC(C)C[C@H](NC(=O)N1CCCCCC1)C(=O)N[C@@H](Cc1ccc(OCc2ccccc2)cc1)C(=O)Nc1ccc(N2CCCCC2)cc1 (relative stereo) [Example 260, [S-(R*,R*)]-Azepane-1-carboxylic acid {1-[2-(4-benzyloxy-phenyl)-1-(4-piperidin-1-yl-phenylcarbamoyl)-ethylcarbamoyl]-3-methyl-butyl}-amide] |  | 33 | 
19 | CC(C)C[C@H](NC(=O)N1CCCCCC1)C(=O)N[C@@H](Cc1ccc(OCc2ccccc2)cc1)C(=O)c1cc[nH]n1 (relative stereo) [Example 261, [S-(R*,R*)]-Azepane-1-carboxylic acid {1-[2-(4-benzyloxy-phenyl)-1-(pyrazole-3-carbonyl)-ethylcarbamoyl]-3-methyl-butyl}-amide] |  |  | 2
20 | COc1cc(C(=O)NC(CC(C)C)C(=O)N[C@@H](Cc2ccc(OCc3ccccc3)cc2)C(=O)OC(C)(C)C)cc(OC)c1OC (stereo in doubt) [Example 92, [S(R*,R*)]-3-(4-Benzyloxy-phenyl)-2-[4-methyl-2-(3,4,5-trimethoxy-benzoylamino)-pentanoylamino]-propionic acid tert-butyl ester] | 1 | 65 | 
